In BindingDB's records for patent US20230391758 (Merck Sharp & Dohme, 2023):

Target: T1, Ceramide glucosyltransferase (Homo sapiens, UniProt Q16739)
T1 sequence (Q16739 whole entry): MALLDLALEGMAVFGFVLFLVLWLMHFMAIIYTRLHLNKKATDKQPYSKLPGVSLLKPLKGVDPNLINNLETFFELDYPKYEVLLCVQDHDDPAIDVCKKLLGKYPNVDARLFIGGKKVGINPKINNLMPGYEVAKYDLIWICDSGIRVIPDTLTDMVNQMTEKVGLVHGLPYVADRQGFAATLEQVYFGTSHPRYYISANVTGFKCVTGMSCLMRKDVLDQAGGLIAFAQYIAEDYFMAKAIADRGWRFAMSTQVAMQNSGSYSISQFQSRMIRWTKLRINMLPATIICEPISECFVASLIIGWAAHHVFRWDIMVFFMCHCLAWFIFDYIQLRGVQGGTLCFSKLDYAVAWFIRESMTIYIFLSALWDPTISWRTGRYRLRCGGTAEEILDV
Experiment: UDP-Glo Glucosylceramide Synthase Biochemical Assay
Method: Using Promega's UDP-Glo™ Glycosyltransferase assay kit (Promega Corporation, Madison, WI, USA (Promega)), GCS activity was indirectly measured by detecting the amount of UDP produced. An aliquot of GCS enzyme (1.5 μg crude golgi preparation, total protein) and titrated test compound were aliquoted to each well and incubated for 30 minutes at room temperature. Substrate mixture was prepared by mixing C6 ceramide (Avanti Polar Lipids, Alabaster, AL USA (Avanti)) (micelles prepared at 0.6 mM in 0.6 mM DOPC) and UDP-glucose (20 μ.M; Promega), at concentrations equivalent to 2×Km, in assay buffer (25 mM HEPES (pH 7.5), 50 mM KCl, 5 mM MgCl2). An equivalent volume of substrate mixture was then added to each well. Following a 20 h incubation at room temperature to allow for GCS turnover of substrate, an equal volume of UDP detection reagent (Promega) was added to each well and incubated for an additional 75 minutes at room temperature to simultaneously convert the accumulated UDP product into ATP and generate light in a luciferase reaction.

Molecule `CCCOc1ccccc1-c1cccc2cc(C(=O)Nc3cccnc3)oc12` [US20230391758, Compound 10] has an EC50 of 1.8 nM.
